Source: patent publication US8211849B2, “Stable antimicrobial compositions including spore, bacteria, fungi and/or enzyme” (priority 2005, dated 2012)
Read-outs that look alike come from different tables or passages of the source.

Assays:
bacteria = experiment: Non-food contact sanitizing test, summary (organism not named); format: cell-based; details: Table 13; composition including the named antimicrobial agent
Experimental: The composition produced greater than 3 log10 reduction of bacteria within a 5 minute contact time.
A summary of sanitizing efficacy in a non-food contact sanitizing test is shown below in Table 11 below. All testing was performed in 500 ppm synthetic hard water with a five minute exposure time. Microbiological testing was performed according to known methods, certain of which included EPA efficacy data requirements from DIS/TSS-10.
(§1) A summary of stability and sanitizing efficacy for these compositions including an amine antimicrobial agent is shown below in Table 13. This table also includes, for comparison, results for compositions including other types of antimicrobial agents.

[1] = Physical stability of compositions; format: physicochemical
From the text: as §1

lipase = experiment: Enzyme stability testing (Lipolase activity); format: biochemical; details: Table 13; composition including the named antimicrobial agent
Experimental: The pH of Formula 3 was lowered to 7. Formulas 4 and 5 maintained enzyme stability at 40 C for at least 30 days. Formula 3 maintained enzyme stability at 40 C for 30 days, but dropped thereafter. Enzyme stability testing was performed according to the manufacturers specifications (e.g., Novozymes LUNA #2000-10340-01 “Manual Procedure for Determination of Lipolase Activity in Enzyme Preparations and Detergents”. )

[2] = Table 13, composition including the named antimicrobial agent

Molecule | Antimicrobial Activity (bacteria) | Physical Stability [1, 2] | Enzyme Stability (lipase) | Physical Stability [1]
CCCCCCCCCC[N+](C)(C)CCCCCCCCCC.[Cl-] [Bardac 2250, didecyl dimethyl ammonium chloride] | 3 log reduction | – | – | –
O=C([O-])CNCO.[Na+] [Integra 44, Hydroxymethylglycinate] | none | yes | – | –
CCCCCCCCCCCCN(CCCN)CCCN [Lonzabac 12.30, bis (3-aminopropyl)dodecylamine] | 4.5 log reduction | yes | yes | –
Cc1cc(O)cc(C)c1Cl [PCMX, Chloroxylenol, reference compound] | – | yes | – | –
Oc1cccc(O)c1 [Resorcinol, 1,3-benzenediol, reference compound] | – | yes | – | –
Dodecyl/tetradecyloxypropyl-1,3-diaminopropane [DA 1618] | 4.8 log reduction | yes | yes | –
cocodiaminopropane [Duomeen CD] | 2.5 log reduction | yes | yes | –
isotridecyloxypropyl-1,3-diaminopropane [DA-17] | 4 log reduction | – | yes | yes
linear alkyloxypropyl amine [PA-19] | 4 log reduction | yes | yes | –
polyhexymethylene biguanide [Vantocil] | – | yes | – | –
